Results on seven compounds are retold here after patent EP4745153A1, “GLP-1, GIP AND GCG RECEPTOR […] USE THEREOF” (Jiangsu Hengrui Pharmaceuticals Co., Ltd., priority 2023, dated 2025).

A word on the EC50: it is the concentration that produces a half-maximal response.

Starred links: 1 amine or outer side, 2 acyl side, 3 side chain; linkers in the order of their positions; H or OH if unused. Non-standard residues stand in square brackets, D forms with d. Residues, ends and D or L forms follow the SMILES beside them. Groups on a side chain read outwards from the residue. ξ: configuration not given here. *: point of attachment. C20 diacid = O=C(O)CCCCCCCCCCCCCCCCCCC(=O)*; γGlu = O=C(O)[C@H](CCC(=O)[*:2])N[*:1]; αMeK = C[C@](N)(CCCCN)C(=O)O; ξIva = CCC(C)(N)C(=O)O; AEEA = NCCOCCOCC(=O)O; Aib = CC(C)(N)C(=O)O

In the experiment the target is T1, human GIPR (Homo sapiens, UniProt P48546).
T1 construct: expressed in transfected cells; host or cells: CHO-K1 clonal cell line
T1 sequence (P48546 22-466): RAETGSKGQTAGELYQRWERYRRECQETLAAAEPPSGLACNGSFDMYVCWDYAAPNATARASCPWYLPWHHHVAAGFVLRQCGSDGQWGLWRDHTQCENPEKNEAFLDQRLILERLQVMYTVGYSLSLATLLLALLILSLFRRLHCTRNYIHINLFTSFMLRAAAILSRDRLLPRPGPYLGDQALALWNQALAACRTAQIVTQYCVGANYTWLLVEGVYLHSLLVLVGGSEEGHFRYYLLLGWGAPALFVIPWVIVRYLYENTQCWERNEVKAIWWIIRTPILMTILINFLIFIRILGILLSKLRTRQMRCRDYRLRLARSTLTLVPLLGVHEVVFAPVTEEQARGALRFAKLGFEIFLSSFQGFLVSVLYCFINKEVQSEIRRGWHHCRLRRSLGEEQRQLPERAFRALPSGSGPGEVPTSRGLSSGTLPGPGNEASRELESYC
Kind of experiment: cAMP HTRF agonist activity assay in CHO-K1 cells expressing GIPR. Also: 5% FBS, 0.1% Casein. In kind it is cell-based. The conditions noted are these: read-out: Activity against human GIPR (EC50 nM). Here is the method: Functional activity was determined in CHO-K1 clonal cell lines expressing GIPR, GLP-1R, and GCGR. […] Each recipient cell (5000 cells/well) was added to an SV 96-well plate (Cisbio, 66PL96025) and incubated with the prepared polypeptide at 37°Cfor 30 min. The resulting increase in intracellular cAMP was quantitatively measured using the cAMP-GS dynamic HTRF assay kit (Cisbio, 62AM4PEJ). Briefly, the intracellular cAMP levels were determined by adding cAMP-d2 conjugate in cell lysis buffer, followed by the antibody anti-cAMP-Eu cryptate (also in cell lysis buffer).
Using the maximum response percentage vs. the added polypeptide concentration, the relative EC50 values were derived through nonlinear regression analysis and fitted to a four-parameter logarithmic equation. For specific data, refer to Tables 7-1 to 7-8 below. […]
(Time-resolved FRET reads energy transfer from a long-lived donor to a nearby acceptor.)
For `CC[C@H](C)[C@H](NC(=O)[C@H](CO)NC(=O)[C@H](Cc1ccc(O)cc1)NC(=O)[C@H](CC(=O)O)NC(=O)[C@H](CO)NC(=O)[C@@H](NC(=O)[C@H](Cc1ccccc1)NC(=O)[C@@H](NC(=O)CNC(=O)[C@H](CCC(N)=O)NC(=O)C(C)(C)NC(=O)[C@@H](N)Cc1c[nH]cn1)[C@@H](C)O)[C@@H](C)O)C(=O)N[C@@H](CC(C)C)C(=O)N[C@@H](CC(C)C)C(=O)N[C@@H](CCC(=O)O)C(=O)N[C@@H](CCCCNC(=O)COCCOCCNC(=O)COCCOCCNC(=O)CC[C@H](NC(=O)CCCCCCCCCCCCCCCCCCC(=O)O)C(=O)O)C(=O)N[C@@H](CCCCN)C(=O)N[C@@H](C)C(=O)N[C@@H](C)C(=O)NC(C)(C)C(=O)N[C@@H](CCC(=O)O)C(=O)N[C@@H](Cc1ccccc1)C(=O)N[C@H](C(=O)N[C@@H](CCC(=O)O)C(=O)N[C@@H](Cc1c[nH]c2ccccc12)C(=O)N[C@@H](CC(C)C)C(=O)N[C@@H](CC(C)C)C(=O)N[C@@H](C)C(=O)NCC(=O)NCC(=O)N1CCC[C@H]1C(=O)N[C@@H](CO)C(=O)N[C@@H](CO)C(=O)NCC(=O)N[C@@H](C)C(=O)N1CCC[C@H]1C(=O)N1CCC[C@H]1C(=O)N1CCC[C@H]1C(=O)N[C@@H](CO)C(N)=O)C(C)C` [Compound 0156], the concentration giving a half-maximal response (EC50) amounted to 0.019 nM. Next, `CC[C@H](C)[C@H](NC(=O)[C@H](CO)NC(=O)[C@H](Cc1ccc(O)cc1)NC(=O)[C@H](CC(=O)O)NC(=O)[C@H](CO)NC(=O)[C@@H](NC(=O)[C@H](Cc1ccccc1)NC(=O)[C@@H](NC(=O)CNC(=O)[C@H](Cc1c[nH]cn1)NC(=O)C(C)(C)NC(=O)[C@@H](N)Cc1c[nH]cn1)[C@@H](C)O)[C@@H](C)O)C(=O)N[C@@H](CC(C)C)C(=O)N[C@@H](CC(C)C)C(=O)N[C@@H](CCC(=O)O)C(=O)N[C@@H](CCCCNC(=O)COCCOCCNC(=O)COCCOCCNC(=O)CC[C@H](NC(=O)CCCCCCCCCCCCCCCCCCC(=O)O)C(=O)O)C(=O)N[C@@H](CCC(N)=O)C(=O)N[C@@H](C)C(=O)N[C@@H](C)C(=O)NC1(C(=O)N[C@@H](CCC(=O)O)C(=O)N[C@@H](Cc2ccccc2)C(=O)N[C@H](C(=O)N[C@@H](CCC(=O)O)C(=O)N[C@@H](Cc2c[nH]c3ccccc23)C(=O)N[C@@H](CC(C)C)C(=O)N[C@@H](CC(C)C)C(=O)N[C@@H](C)C(=O)N[C@H](CCC(=O)O)C(=O)NCC(=O)N2CCC[C@H]2C(=O)N[C@@H](CO)C(=O)N[C@@H](CO)C(=O)NCC(=O)N[C@@H](C)C(=O)N2CCC[C@H]2C(=O)N2CCC[C@H]2C(=O)N2CCC[C@H]2C(=O)N[C@@H](CO)C(N)=O)C(C)C)CC1` [Compound 0149]: 0.004 nM.

In the case of `CC[C@H](C)[C@H](NC(=O)[C@H](CO)NC(=O)[C@H](Cc1ccc(O)cc1)NC(=O)[C@H](CC(=O)O)NC(=O)[C@H](CO)NC(=O)[C@@H](NC(=O)[C@H](Cc1ccccc1)NC(=O)[C@@H](NC(=O)CNC(=O)[C@H](Cc1c[nH]cn1)NC(=O)C(C)(C)NC(=O)[C@@H](N)Cc1c[nH]cn1)[C@@H](C)O)[C@@H](C)O)C(=O)N[C@@H](CC(C)C)C(=O)N[C@@H](CC(C)C)C(=O)N[C@@H](CCC(=O)O)C(=O)N[C@@H](CCCCNC(=O)COCCOCCNC(=O)COCCOCCNC(=O)CC[C@H](NC(=O)CCCCCCCCCCCCCCCCCCC(=O)O)C(=O)O)C(=O)N[C@@H](CCC(N)=O)C(=O)N[C@@H](C)C(=O)N[C@@H](C)C(=O)NC1(C(=O)N[C@@H](CCC(=O)O)C(=O)N[C@@H](Cc2ccccc2)C(=O)N[C@H](C(=O)N[C@@H](CCC(=O)O)C(=O)N[C@@H](Cc2c[nH]c3ccccc23)C(=O)N[C@@H](CC(C)C)C(=O)N[C@@H](CC(C)C)C(=O)N[C@@H](C)C(=O)N[C@H](CCC(=O)O)C(=O)NCC(=O)N2CCC[C@H]2C(=O)N[C@@H](CO)C(=O)N[C@@H](CO)C(=O)NCC(=O)N[C@@H](C)C(=O)N2CCC[C@H]2C(=O)N2CCC[C@H]2C(=O)N2CCC[C@H]2C(=O)N[C@@H](CO)C(N)=O)C(C)C)CCC1` [Compound 0150], the EC50 came to 0.002 nM. Next, `CC[C@H](C)[C@H](NC(=O)[C@](C)(CCCCN)NC(=O)[C@H](CO)NC(=O)[C@H](Cc1ccc(O)cc1)NC(=O)[C@H](CC(=O)O)NC(=O)[C@H](CO)NC(=O)[C@@H](NC(=O)[C@H](Cc1ccccc1)NC(=O)[C@@H](NC(=O)CNC(=O)[C@H](CCC(N)=O)NC(=O)C(C)(C)NC(=O)[C@@H](N)Cc1ccc(O)cc1)[C@@H](C)O)[C@@H](C)O)C(=O)N[C@@H](CC(C)C)C(=O)N[C@@H](CCC(=O)O)C(=O)N[C@@H](CCCCNC(=O)COCCOCCNC(=O)COCCOCCNC(=O)CC[C@H](NC(=O)CCCCCCCCCCCCCCCCCCC(=O)O)C(=O)O)C(=O)N[C@@H](CCCCN)C(=O)N[C@@H](C)C(=O)N[C@@H](C)C(=O)NC(C)(CC)C(=O)N[C@@H](CCC(=O)O)C(=O)N[C@@H](Cc1ccccc1)C(=O)N[C@H](C(=O)N[C@@H](CCC(=O)O)C(=O)N[C@@H](Cc1c[nH]c2ccccc12)C(=O)N[C@@H](CC(C)C)C(=O)N[C@@H](CC(C)C)C(=O)N[C@@H](C)C(=O)NCC(=O)NCC(=O)N1CCC[C@H]1C(=O)N[C@@H](CO)C(=O)N[C@@H](CO)C(=O)NCC(=O)N[C@@H](C)C(=O)N1CCC[C@H]1C(=O)N1CCC[C@H]1C(=O)N1CCC[C@H]1C(=O)N[C@@H](CO)C(N)=O)C(C)C` (stereo partly shown) [Compound 0129] (H-Y[Aib]QGTFTSDYS[αMeK]ILEK([AEEA-AEEA-γGlu-C20 diacid])KAA[ξIva]EFVEWLLAGGPSSGAPPPS-NH2): 0.002 nM; `CC[C@H](C)[C@H](NC(=O)[C@H](CO)NC(=O)[C@H](Cc1ccc(O)cc1)NC(=O)[C@H](CC(=O)O)NC(=O)[C@H](CO)NC(=O)[C@@H](NC(=O)[C@H](Cc1ccccc1)NC(=O)[C@@H](NC(=O)CNC(=O)[C@H](Cc1c[nH]cn1)NC(=O)C(C)(C)NC(=O)[C@@H](N)Cc1c[nH]cn1)[C@@H](C)O)[C@@H](C)O)C(=O)N[C@@H](CC(C)C)C(=O)N[C@@H](CC(C)C)C(=O)N[C@@H](CCC(=O)O)C(=O)N[C@@H](CCCCNC(=O)COCCOCCNC(=O)COCCOCCNC(=O)CC[C@H](NC(=O)CCCCCCCCCCCCCCCCCCC(=O)O)C(=O)O)C(=O)N[C@@H](CCC(N)=O)C(=O)N[C@@H](C)C(=O)N[C@@H](C)C(=O)N[C@@H](CCC(N)=O)C(=O)N[C@@H](CCC(=O)O)C(=O)N[C@@H](Cc1ccccc1)C(=O)N[C@H](C(=O)N[C@@H](CCC(=O)O)C(=O)N[C@@H](Cc1c[nH]c2ccccc12)C(=O)N[C@@H](CC(C)C)C(=O)N[C@@H](CC(C)C)C(=O)N[C@@H](C)C(=O)N[C@H](CCC(=O)O)C(=O)NCC(=O)N1CCC[C@H]1C(=O)N[C@@H](CO)C(=O)N[C@@H](CO)C(=O)NCC(=O)N[C@@H](C)C(=O)N1CCC[C@H]1C(=O)N1CCC[C@H]1C(=O)N1CCC[C@H]1C(=O)N[C@@H](CO)C(N)=O)C(C)C` [Compound 0153]: 0.01 nM; `CC[C@H](C)[C@H](NC(=O)[C@H](CO)NC(=O)[C@H](Cc1ccc(O)cc1)NC(=O)[C@H](CC(=O)O)NC(=O)[C@H](CO)NC(=O)[C@@H](NC(=O)[C@H](Cc1ccccc1)NC(=O)[C@@H](NC(=O)CNC(=O)[C@H](Cc1c[nH]cn1)NC(=O)C(C)(C)NC(=O)[C@@H](N)Cc1c[nH]cn1)[C@@H](C)O)[C@@H](C)O)C(=O)N[C@@H](CC(C)C)C(=O)N[C@@H](CC(C)C)C(=O)N[C@@H](CCC(=O)O)C(=O)N[C@@H](CCCCNC(=O)COCCOCCNC(=O)COCCOCCNC(=O)CC[C@H](NC(=O)CCCCCCCCCCCCCCCCCCC(=O)O)C(=O)O)C(=O)N[C@@H](CCC(N)=O)C(=O)N[C@@H](C)C(=O)N[C@@H](C)C(=O)N[C@@H](CCC(N)=O)C(=O)N[C@@H](CCC(=O)O)C(=O)N[C@@H](Cc1ccccc1)C(=O)N[C@H](C(=O)N[C@@H](CCC(=O)O)C(=O)N[C@@H](Cc1c[nH]c2ccccc12)C(=O)N[C@@H](CC(C)C)C(=O)N[C@@H](CC(C)C)C(=O)N[C@@H](C)C(=O)NCC(=O)NCC(=O)N1CCC[C@H]1C(=O)N[C@@H](CO)C(=O)N[C@@H](CO)C(=O)NCC(=O)N[C@@H](C)C(=O)N1CCC[C@H]1C(=O)N1CCC[C@H]1C(=O)N1CCC[C@H]1C(=O)N[C@@H](CO)C(N)=O)C(C)C` [Compound 0152] (H-H[Aib]HGTFTSDYSILLEK([AEEA-AEEA-γGlu-C20 diacid])QAAQEFVEWLLAGGPSSGAPPPS-NH2): 0.009 nM. Next, `CC[C@H](C)[C@H](NC(=O)[C@H](CO)NC(=O)[C@H](CC(C)C)NC(=O)[C@H](CC(=O)O)NC(=O)[C@H](CO)NC(=O)[C@@H](NC(=O)[C@H](Cc1ccccc1)NC(=O)[C@@H](NC(=O)CNC(=O)[C@H](Cc1c[nH]cn1)NC(=O)C(C)(C)NC(=O)[C@@H](N)Cc1c[nH]cn1)[C@@H](C)O)[C@@H](C)O)C(=O)N[C@@H](CC(C)C)C(=O)N[C@@H](CC(C)C)C(=O)N[C@@H](CCC(=O)O)C(=O)N[C@@H](CCCCNC(=O)COCCOCCNC(=O)COCCOCCNC(=O)CC[C@H](NC(=O)CCCCCCCCCCCCCCCCCCC(=O)O)C(=O)O)C(=O)N[C@@H](CCCCN)C(=O)N[C@@H](C)C(=O)N[C@@H](C)C(=O)NC(C)(CC)C(=O)N[C@@H](CCC(=O)O)C(=O)N[C@@H](Cc1ccccc1)C(=O)N[C@H](C(=O)N[C@@H](CCC(=O)O)C(=O)N[C@@H](Cc1c[nH]c2ccccc12)C(=O)N[C@@H](CC(C)C)C(=O)N[C@@H](CC(C)C)C(=O)N[C@@H](C)C(=O)NCC(=O)NCC(=O)N1CCC[C@H]1C(=O)N[C@@H](CO)C(=O)N[C@@H](CO)C(=O)NCC(=O)N[C@@H](C)C(=O)N1CCC[C@H]1C(=O)N1CCC[C@H]1C(=O)N1CCC[C@H]1C(=O)N[C@@H](CO)C(N)=O)C(C)C` (stereo partly shown) [Compound 0136]: 0.001 nM.
